pIC50, pKi: −log10 of the molar value.
Tests used:
Format in all cases: biochemical
β-secretase (BACE) [1] = molecular target: T1, β-secretase (BACE) (Homo sapiens, UniProt P56817); experiment: In Vitro BACE FS1 % Inhibition Assay (Example 15); settings: FS1 substrate
T1 construct: purchased Panvera
Method: (§1) The following reagents were used in this assay: sodium acetate, PEG8000 (Sigma), DMSO, HEPES, FS1 substrate [R(AedensE)[…]-(DabcylK)R], β-secretase (BACE) (Panvera), and 96-well plate (HE microplate, Molecular Devices).
(§2) The following assay buffers were prepared and used in this assay: (1) enzyme assay buffer (0.05 M sodium acetate, pH5, 0.1% PEG8000 (w/v)), (2) substrate assay buffer (0.05 M sodium acetate, pH5), and (3) compound vehicle (30% DMSO in 50 mM HEPES, pH 7.4).
(§3) The FS1-substrate stock solution was prepared in DMSO as a 10 mg/mL solution. The FS1-substrate working solution was prepared by diluting the 10 mg/mL stock solution with substrate assay buffer to a final concentration of 300 μg/mL. The β-secretase (BACE) working solution was prepared by diluting a 0.83 mg/mL BACE stock solution with enzyme assay buffer to a final concentration of 4 μg/mL.
Test compounds were dissolved in DMSO to 10 mM. Compounds were further diluted in vehicle to various concentrations in the range of 405 μM to 4.05 μM (13.5× final compound concentration in screening plate).
The screening procedure for this assay was as follows: 15 μL of BACE working solution was pipetted into each well of a 96-well plate. To each well was then pipetted 2 μL of test compound at the selected concentration. Test compound and BACE were then mixed with a pipettor and incubated for 20 min at room temperature. To each well was then added 10 μL of the FS1 substrate working solution. The plates were then incubated for 1 hour at room temperature. The fluorescence for each well was then measured on an LJL analyst (Ex 360 nm/Em 530 nm).
The procedure for the blank (negative control) was as follows. 15 μL of assay buffer was pipetted into each well to be used as a blank control. To each well was then added 2 μL of vehicle and 10 μL of FS1-substrate working solution. The plates were then incubated for 1 hour at room temperature. The fluorescence was measured on an LJL analyst (Ex 360 nm/Em 530 nm).
The procedure for the positive control was as follows: 15 μL of BACE working solution was pipetted into each well to be used as a positive control. To each well was then pipetted 2 μL of vehicle. Vehicle and BACE were then mixed with a pipettor and incubated for 20 min at room temperature. To each well was then added 10 μL of the FS1 substrate working solution. The plates were then incubated for 1 hour at room temperature. The fluorescence (Fl) was then measured on an LJL analyst (Ex 360 nm/Em 530 nm).
For test compounds, % inhibition was determined at each concentration as follows:
% Inhibition values of less than 30% were indistinguishable from control and are listed as ≦30% in the Table below. % Inhibition values greater than 100% were indistinguishable from 100% within the error of the measurement.

β-secretase (BACE) [2] = molecular target: T1, β-secretase (BACE); experiment: In Vitro BACE Assay, Ki (Example 16); settings: FS1 substrate, pH5
Method: as §1, §2, §3
Test compounds were dissolved in DMSO at 10 mM.
The procedure for this assay was as follows: 15 μL of BACE working solution was pipetted into each well of a 96-well plate. To each well was then pipetted 2 μL of test compound at the selected concentration. Test compound and BACE were then mixed with a pipettor and incubated for 20 min at room temperature. […] The fluorescence for each well was then measured on a Polarstar fluorometer (Ex 390 nm/Em 520 nm) for 20 min at room temperature, reading fluorescence at 1 min intervals.
The procedure for the positive control was as follows: 15 μL of BACE working solution was pipetted into each well to be used as a positive control. […] The fluorescence was then measured on a Polarstar fluorometer (Ex 390 nm/Em 520 nm) for 20 min at room temperature, reading fluorescence at 1 min intervals.
For test compounds, Ki inhibition was determined as follows: For each compound concentration and positive control, rate of cleavage of substrate (Vi, where i=compound concentration in μM) was determined as Δ Fluorescence/Δ time (min). […] The Ki was then determined by fitting the following equation to the graph of [I] vs Vi Y=aVmax/(50+24*(1+X/Ki)),

human BACE-1 = human BACE-1 (Homo sapiens, UniProt P56817); experiment: In Vitro BACE Assay run by CEREP (Example 19); settings: recombinant enzyme; for inhibition at 1 µM: pH 4.5, 1.0 μM compound; for pIC50: pH 4.5; for inhibition at 10 µM: pH 4.5, 10.0 μM compound
Method: This assay was run by CEREP (Catalog Ref. 761-B, Referred to SOP No. 1C131; ERMOLIEFF, J., LOY, J. A., KOELSCH, G. and TANG, J., Proteolytic activation of recombinant pro-memapsin 2 (pro-BACE) studied with new fluorogenic substrates, Biochemistry, (2000) Vol. 39, p. 12450).
More specifically the assay, run at 50 μL in a 96 well plate, evaluated the effect of test compound on the activity of the human BACE-1 quantified by measuring the formation of Mca-S-E-V—N-L-NH2 from Mca-S-E-V—N-L-D-A-E-F—R—K(Dnp)-R—R—NH2, using a recombinant enzyme.
The test compound, reference compound or water (control) was added to a buffer containing 0.09 M sodium acetate (pH 4.5) and 0.25 μg BACE-1. Compound interference with the fluorimetric detection method due to autofluorescence was then checked by measurements at the wavelengths defined to evaluate the enzyme activity. Thereafter, the reaction was initiated by adding 7.5 μM of the substrate Mca-S-E-V—N-L-D-A-E-F—R—K(Dnp)-R—R—NH2 and the mixture was incubated for 60 min at 37° C. For control basal measurement, the substrate was omitted from the reaction mixture. Immediately after the incubation, the fluorescence intensity emitted by the reaction product Mca-S-E-V—N-L-NH2 was measured at λex=320 nm and λem=405 nm using a microplate reader (Ultra, Tecan). The standard inhibitory reference compound was OM99-2, which was tested in each experiment at several concentrations to obtain an inhibition curve from which its IC50 value was calculated.

T1 sequence (P56817 46-501): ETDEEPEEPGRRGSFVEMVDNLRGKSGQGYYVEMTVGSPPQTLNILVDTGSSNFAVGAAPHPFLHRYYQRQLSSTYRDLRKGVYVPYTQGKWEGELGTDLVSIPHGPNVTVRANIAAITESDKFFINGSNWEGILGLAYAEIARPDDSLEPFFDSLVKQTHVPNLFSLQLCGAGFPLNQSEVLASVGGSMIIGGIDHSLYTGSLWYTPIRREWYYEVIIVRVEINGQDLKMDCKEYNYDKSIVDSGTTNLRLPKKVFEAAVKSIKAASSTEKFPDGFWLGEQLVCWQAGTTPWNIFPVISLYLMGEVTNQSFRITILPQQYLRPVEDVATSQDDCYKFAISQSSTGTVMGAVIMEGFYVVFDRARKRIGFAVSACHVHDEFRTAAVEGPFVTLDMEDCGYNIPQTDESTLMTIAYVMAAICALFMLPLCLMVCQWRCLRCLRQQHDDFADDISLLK
Sequence of human BACE-1 (P56817 46-501): as above

Structure (SMILES) | inhibition at 1 µM (human BACE-1) | pIC50 (human BACE-1) | inhibition at 10 µM (human BACE-1) | other results
Cn1ccnc1CN(CCCC(c1cc2cc(Oc3ccccc3)ccc2nc1N)C1CCOCC1)CCC(C)(C)C (stereo not shown) [Example 11, 3-[4-[(3,3-dimethyl-butyl)-(1-methyl-1H-imidazol-2-ylmethyl)-amino]-1-(tetrahydro-pyran-4-yl)-butyl]-6-phenoxy-quinolin-2-ylamine] | – | – | – | % Inhibition @ 0.3 μM (β-secretase (BACE) [1]; 0.3 μM compound): −6%; % Inhibition @ 1 μM (β-secretase (BACE) [1]; 1 μM compound): 5%; % Inhibition @ 3 μM (β-secretase (BACE) [1]; 3 μM compound): 81%
Nc1nc2ccc(Oc3ccccc3)cc2cc1CCC(=O)NC1C2CC3CC(C2)CC1C3 (stereo not shown) [compound 2] | – | – | – | inhibition at 0.3 µM (β-secretase (BACE) [1]; 0.3 μM compound): 45%; inhibition at 1 µM (β-secretase (BACE) [1]; 1 μM compound): 78%; inhibition at 3 µM (β-secretase (BACE) [1]; 3 μM compound): 107%; pKi (β-secretase (BACE) [2]): 6.64
Nc1nc2ccc(Oc3ccccc3)cc2cc1C(CCC(=O)NC1C2CC3CC(C2)CC1C3)C1CCCCC1 (stereo not shown) [compound 15] | – | – | – | inhibition at 0.3 µM (β-secretase (BACE) [1]; 0.3 μM compound): 43%; inhibition at 1 µM (β-secretase (BACE) [1]; 1 μM compound): 58%; inhibition at 3 µM (β-secretase (BACE) [1]; 3 μM compound): 78%; pKi (β-secretase (BACE) [2]): 6.55
Nc1nc2ccc(Oc3ccccc3)cc2cc1C(CCC(=O)NC1C2CC3CC(C2)CC1C3)C1CCOCC1 (stereo not shown) [compound 24] | – | – | – | inhibition at 0.3 µM (β-secretase (BACE) [1]; 0.3 μM compound): 56%; inhibition at 1 µM (β-secretase (BACE) [1]; 1 μM compound): 103%; inhibition at 3 µM (β-secretase (BACE) [1]; 3 μM compound): 132%; pKi (β-secretase (BACE) [2]): 7.18
CN(C(=O)CCCC(c1cc2cc(Oc3ccccc3)ccc2nc1N)C1CCCCC1)C1CCCCC1 (stereo not shown) [compound 40] | 54% | 6.19 | – | inhibition at 0.3 µM (human BACE-1; pH 4.5, 0.3 μM compound): 13%
Nc1nc2ccc(Oc3ccccc3)cc2cc1C(CCC(=O)N(CCO)C1CCCCC1)C1CCOCC1 (stereo not shown) [compound 50] | 87% | 6.13 | – | –
Nc1nc2ccc(Oc3ccccc3)cc2cc1[C@@H](CCC(=O)NCC1CC1)C1CCOCC1 [compound 78] | 75% | 6.47 | – | –
CC(C)(C)CCNC(=O)CC[C@H](c1cc2cc(Oc3ccccc3)ccc2nc1N)C1CCOCC1 [compound 79] | 89% | 6.54 | – | –
CC(C)(C)CCNC(=O)CCC[C@H](c1cc2cc(Oc3ccccc3)ccc2nc1N)C1CCOCC1 [compound 82] | 85% | 6.68 | – | –
CN(CC1CCCCC1)C(=O)CC[C@H](c1cc2cc(Oc3ccccc3)ccc2nc1N)C1CCOCC1 [compound 84] | 96% | 6.44 | – | –
CN(CCC[C@H](c1cc2cc(Oc3ccccc3)ccc2nc1N)C1CCOCC1)CC1CCCCC1 [compound 85] | – | 6.47 | 98% | –
Cn1ccnc1CN(CCC(C)(C)C)C(=O)CC[C@H](c1cc2cc(Oc3ccccc3)ccc2nc1N)C1CCOCC1 [compound 86] | 100% | 6.66 | – | –
Cn1ccnc1CN(CCC(C)(C)C)C(=O)CCCC(c1cc2cc(Oc3ccccc3)ccc2nc1N)C1CCOCC1 (stereo not shown) [compound 87] | – | 6.59 | 99% | –
CCOC(=O)C(COCc1ccccc1)NCCCC(c1cc2cc(Oc3ccccc3)ccc2nc1N)C1CCOCC1 (stereo not shown) [compound 89] | – | 6.16 | 85% | –
Nc1nc2ccc(Oc3ccccc3)cc2cc1C(CCCC(=O)N(CCN1CCOCC1)C1CCCCC1)C1CCOCC1 (stereo not shown) [compound 90] | – | 5.77 | 94% | –
Nc1nc2ccc(Oc3ccccc3)cc2cc1C(CCCC(=O)N(CCN1CCCC1)C1CCCCC1)C1CCOCC1 (stereo not shown) [compound 91] | – | 5.96 | 86% | –

Structure (SMILES) | inhibition at 1 µM (human BACE-1) | pIC50 (human BACE-1) | inhibition at 10 µM (human BACE-1) | other results
CC(C)(C)CCN(CCCC(c1cc2cc(Oc3ccccc3)ccc2nc1N)C1CCOCC1)CCN1CCCC1 (stereo not shown) [compound 93] | – | 7.07 | 95% | –
Cn1ccnc1CN(CCCC(c1cc2cc(Oc3ccccc3)ccc2nc1N)C1CCOCC1)C1CCCCC1 (stereo not shown) [compound 94] | – | 7.09 | 95% | –
COC(=O)C(COCc1ccccc1)NCCCC(c1cc2cc(Oc3ccccc3)ccc2nc1N)C1CCOCC1 (stereo not shown) [compound 95] | – | 6.92 | 95% | –
CC(C)C(CO)NCCCC(c1cc2cc(Oc3ccccc3)ccc2nc1N)C1CCOCC1 (stereo not shown) [compound 96] | – | 5.77 | 83% | –
COc1cc2nc(N)c(C(CCC(=O)NCCC(C)(C)C)C3CCOCC3)cc2cc1Oc1ccccc1 (stereo not shown) [compound 100] | – | 6.43 | 72% | –
COc1cc2nc(N)c(C(CCC(=O)N(C)C3CCCCC3)C3CCOCC3)cc2cc1Oc1ccccc1 (stereo not shown) [compound 101] | – | 6.54 | 85% | –
CCOc1cc2nc(N)c(C(CCC(=O)NCCC(C)(C)C)C3CCOCC3)cc2cc1Oc1ccccc1 (stereo not shown) [compound 102] | – | 6.57 | 97% | –
COc1cc2nc(N)c(C(CCC(=O)N(CCN3CCOCC3)C3CCCCC3)C3CCOCC3)cc2cc1Oc1ccccc1 (stereo not shown) [compound 107] | – | 6.44 | 89% | –
COc1cc2nc(N)c(C(CCCN(CCN3CCOCC3)C3CCCCC3)C3CCOCC3)cc2cc1Oc1ccccc1 (stereo not shown) [compound 108] | – | 6.44 | 95% | –
CC(C)(C)n1cc(CC(c2cc3cc(Oc4ccccc4)ccc3nc2N)C2CCOCC2)nn1 (stereo not shown) [compound 150] | 12% | 5.48 | – | –
CC(C)(C)Cc1cc(CC(c2cc3cc(Oc4ccccc4)ccc3nc2N)C2CCOCC2)on1 (stereo not shown) [compound 151] | 90% | 6.51 | – | –
CC(C)(C)c1cc(CC(c2cc3cc(Oc4ccccc4)ccc3nc2N)C2CCOCC2)on1 (stereo not shown) [compound 152] | 53% | 6.25 | – | –
Nc1nc2ccc(Oc3ccccc3)cc2cc1C(Cc1cn(C23CC4CC(CC(C4)C2)C3)nn1)C1CCOCC1 (stereo not shown) [compound 153] | 46% | 6.17 | – | –
Nc1nc2ccc(Oc3ccccc3)cc2cc1C(CCc1cn(C23CC4CC(CC(C4)C2)C3)nn1)C1CCOCC1 (stereo not shown) [compound 155] | 67% | 5.66 | – | –
CC(C)(C)c1cc(CCC(c2cc3cc(Oc4ccccc4)ccc3nc2N)C2CCOCC2)on1 (stereo not shown) [compound 156] | 85% | 6.51 | – | –

Source: US7868022B2, “2-amino-quinoline derivatives useful as inhibitors of β-secretase (BACE)” (Janssen Pharmaceutica NV, priority 2006, dated 2011)
